Results as given in patent US20240392254A1, “CANCER MICROENVIRONMENT” (CARCINOTECH LTD, priority 2021, published 2024).
Where two headings read alike, the source gives them in different places.

Tests used:
[1] = tested on: U-87 MG glioblastoma cell line; assay: Cisplatin dose-response in 2D culture, CellTiter-Glo viability; type: cell-based
Experimental: (§1) Cell cultures were exposed to the indicated cisplatin concentrations for 72 h. Cell viability was then assessed using the luminescence-based CellTiter-Glo Assay. Data are presented as means±SEM (n≥2). For 2D cell cultures and 3D tumorspheres FIGS. 7A and 7B) dose-response curves were fitted (nonlinear regression) to calculate the IC50 values (see: Table 1 in the examples section). In the 3D bioprint experiment (FIG. 7B) statistically significant difference between untreated control and cisplatin treatment was determined using an unpaired t-test (**** p≤0.0001).
(§2) Both cell lines were deemed sensitive to cisplatin, however, higher drug doses were required to initiate death of cancer stem cells.

[2] = tested on: glioblastoma cancer stem cells (GBM CSC); assay: as above; type: cell-based
Experimental: as §1, §2

[3] = tested on: 3D GBM tumorspheres (spheroids) from coculture of U-87 MG, GBM CSC, GBM CAF and microglia (HMC3); assay: Cisplatin dose-response in 3D GBM tumorspheres, CellTiter-Glo viability; type: cell-based
Experimental: as §1
In the next step, response to cisplatin was tested in 3D GBM spheroids (see FIG. 7B). […] Nevertheless, cisplatin was effective in 3D GBM tumourspheres (spheroids) as well.

[4] = tested on: 3D GBM bioprints (example B21_012); assay: Cisplatin treatment of 3D GBM bioprinted constructs, CellTiter-Glo viability; type: cell-based, human
Experimental: as §1
Bioprinted constructs were treated with 50, 100, 200, or 400 μM cisplatin (CDDP) for 72 h. Viability was assessed using CellTiter-Glo assay.
Tumorspheres, obtained from a coculture of U87MG (60%), microglia HMC3 (28%), GBM-CAF (10%) and GBM-CSC (2%) after 14 days in 5×96-well round bottom low adhesion plates, were harvested by sedimenting in Falcon tube then transferred into a 1 ml syringe. The culture medium was eliminated by gravitation. The total volume of tumorsphere pellet was 50 μL. 270 μL of bioink Cellink Laminink 411 were transferred into another 1 ml syringe; a connector was used to link both syringes. Mixing the bioink and tumorspheres was done by pushes from one side to another. The homogenous mixture tumorspheres-bioink (˜320 μL) was transferred in 3 ml syringe preloaded with 1 mL start ink. […]

[5] = tested on: bioprinted construct BB21-001 (MDA-MB-231, hMAds, CAF, BCSC); assay: Doxorubicin treatment of single-cell bioprinted breast cancer construct, RealTime-Glo MT viability; type: cell-based, human
Experimental: The 15-day old bioprinted constructs were treated with 0.2 and 1 μM Doxorubicin (Doxo) for 72 h. Cell viability was assessed using RealTime-Glo MT before treatment (day 0) and after 72 h of treatment. To assess the doxorubicin effects after 72 h, a percentage of day 0 viability was calculated for each construct. Statistically significant differences were determined using one-way ANOVA with Tukey's post-hoc test, and indicated as follows: *** p≤0.001, **** p≤0.0001, ns—not significant.
Each cell line (MDA-MB-231, hMAds, CAF and BCSC) was harvested, counted and then the required number of cells was transferred into a 15 ml Falcone tube. The cells were spun down then resuspended into 20 μL of complete 3D Tumorsphere Medium XF (obtained from PromCell®) and loaded into a syringe preloaded with 200 μL of Laminink 411 (cells corresponded to 10% of the bioink volume). Then mixed for 550 times. The homogeneous mixture was transferred to a syringe and then set to bioprint (the extrusion volume of each bioprint being set to 3 uL (approximately 50000 cells per droplet).

[6] = tested on: bioprinted construct BB21-001; assay: LDH release (LDH-Glo) cytotoxicity in bioprinted breast cancer construct; type: cell-based, human; details: 0.2 and 1 μM doxorubicin, 72 h time-point
Experimental: The 15-day old bioprinted constructs were treated with 0.2 and 1 μM Doxorubicin (Doxo). Medium samples were collected at 24, 48 and 72 h time points to assess the Lactate Dehydrogenase (LDH) release, which is a marker of cytotoxicity. LDH-Glo assay was used. Data are presented as means±SD, n=3.
Cytotoxicity of doxorubicin was also assessed by LDH release detection.

[7] = tested on: MDA-MB-231 triple negative breast cancer cells; assay: Doxorubicin dose-response in 2D cell culture; details: for cell viability (in comparison to an untreated control sample): 2D cell culture
Experimental: The MDA-MB-231 cells were cultured in Leibovitz's L-15 Medium (ATCC®) and fetal bovine serum was added to a final concentration of 10%, and in accordance with the general procedure outlined in MDA-MB-231 (HTB-26™) Product sheet from ATCC® (https://www.atcc.org/products/htb-26).
Cells were exposed to a range of doxorubicin concentrations for 72 hours and sensitivity to this drug was evaluated by determining a concentration that kills 50% of the cells (IC50).

SMILES | IC50 ([1]; 2D U-87 MG, 72 h, read-out: Cisplatin IC50 (Mean ± SEM)) [µM] | sensitivity to cisplatin ([1]; 2D culture, 72 hours) | IC50 ([2]; 2D GBM CSC, 72 h, read-out: Cisplatin IC50 (Mean ± SEM)) [µM] | sensitivity to cisplatin ([2]; 2D culture, 72 hours, higher doses required than for U-87 MG) | effectiveness of cisplatin ([3]; 3D GBM tumourspheres) | IC50 ([3]; 3D spheroids (tumourspheres)) [µM] | IC50 ([4]; 3D Bioprinted tumour, 72 h, read-out: Cisplatin IC50) [µM] | IC50 ([4]; printed construct, read-out: IC50 value) [µM] | effect on cell viability ([5]; 1.0 μM doxorubicin) | viability at 0.2 µM ([5]; Homo sapiens, MDA-MB-231, 0.2 μM doxorubicin, 72 h, 15-day old construct, read-out: cell viability (in comparison to an untreated control sample)) [%] | viability at 1 µM ([5]; Homo sapiens, MDA-MB-231, 1.0 μM doxorubicin, 72 h, 15-day old construct, read-out: cell viability (in comparison to an untreated control sample)) [%] | LDH release (cytotoxicity) [6] | cell viability (in comparison to an untreated control sample) ([7]; 0.2 μM doxorubicin) [%] | cell viability (in comparison to an untreated control sample) ([7]; 1.0 μM doxorubicin) [%] | IC50 ([7]; 2D culture, 72 hours) [µM]
N.N.[Cl][Pt][Cl] [Cisplatin] | 12.9 ± 2.5 | sensitive | 20.1 ± 3.5 | sensitive | effective | 111 | > 200 | > 200 | – | – | – | – | – | – | –
COc1cccc2c1C(=O)c1c(O)c3c(c(O)c1C2=O)C[C@@](O)(C(=O)CO)C[C@@H]3O[C@H]1C[C@H](N)[C@H](O)[C@H](C)O1 [doxorubicin, Doxorubicin] | – | – | – | – | – | – | – | – | significantly reduces cell viability | ~84 | ~35 | increasing trend | ~40 | <14 | 0.08 ± 0.02
